# In patent US6855549B1, “Methods and compositions for increasing the infectivity of gene transfer vectors” (The University of Iowa Research Foundation, priority 1998, dated 2005):
# Entries after “also recorded” stand apart in the source; their conditions may differ. Read-outs that look alike come from different tables or passages of the source.
# Tests used:
# [1] = system: differentiated human airway epithelia; assay type: cell-based
# lung = assay: Lung morphology (H & E) 1 wk after EGTA/water instillation; assay type: in vivo, rat
# Protocol: (§1) Preliminary studies were performed in rats to test the feasibility of using hypotonic solutions with EGTA to increase transepithelial permeability in vivo. 3 wk old rats were tracheotomized and a small caliber PE catheter inserted into the left lobe of the lung. 100 μl of 3 or 12 mM EGTA in water or PBS was mixed with […] fluorescent beads (a marker for viral particles) and instilled into the lungs. One hour later the animals were sacrificed and lung, tissue sections examined under fluorescence microscopy to determine if the fluorescent beads penetrated the epithelial layer. In the PBS control animal, fluorescent particles were only noted in the airway lunen. […] It also was asked if animals treated with EGTA/H2O developed changes in lung morphology. Animals received PBS or 12, 60, or 120 mM EGTA/water into the left lobe of the lung and 1 wk later were sacrificed and H & E stained lung tissues examined.
# [2] = system: differentiated human airway epithelia; assay: Transepithelial resistance of KGF-treated airway epithelia with Ca2+ chelators; assay type: cell-based; conditions: 6 mM chelator, isotonic (220 mmol/kg)
# Protocol: Differentiated epithelial cells were treated with 100 ng/ml KGF for 24 hr. Different concentrations of each calcium chelator in HEPES/HCl (pH 7.4) or in isotonic HEPES/saline (pH 7.4) buffer were mixed with vector buffer and applied to the apical surface for times as specified (Wang et al., 1998). Transepithelial resistance was measured with an Ohmmeter (EVOM; World Precision Instruments, Inc. Sarasota, Fla.) by adding cell culture media to the apical surface and the values were compared to untreated controls.
# To understand whether the tonicity of the vector solution affects epithelial permeability and gene transfer efficiency, hypotonic (40 mmol/kg) or isotonic (220 mmol/kg) solutions of 6 mM EGTA, EDTA or BAPTA were added to the MuLV vector buffer and applied to the apical surface of differentiated airway epithelial cells pre-treated with KGF. At specific time intervals, transepithelial resistance (R1) was measured using an Ohmmeter.
# [3] = system: rabbit tracheal epithelium; assay: Retroviral or adenoviral gene transfer to rabbit tracheal epithelium after EGTA pretreatment; assay type: in vivo; conditions: retroviral (MuLV, KGF pretreated) or adenoviral vector, three days
# Protocol: Gene transfer to the rabbit tracheal epithelium In Vito. Adult New Zealand white rabbits were anesthetized with 32 mg/kg ketamnine, 5.1 mg/kg xylazine and 0.8 mg/kg acepromazine intramuscularly. Using sterile technique, a ventral midline incision was made, exposing the trachea for tracheotomy. A ˜1.5 cm tracheal segment cephalad to the tracheotomy was isolated, and cannulated on each end with PE 330 tubing (Clay Adams, Becton Dickinson). The tracheal segment was first rinsed and then filled with a solution of 12 mM EGTA in water for 45 min. The EGTA solution was removed, and as replaced with 300 μl of retrovirus (titer 3×10^9 cfu/ml) or adenovirus (titer 1×10^10 pfu/ml) vector. In control animals, saline was substituted for water and EGTA treatment. Animals that received the MuLV retrovirus were pretreated with keratinocyte growth factor (KGF) prior to gene transfer to stimulate epithelial proliferation (˜5 mg/kg intravenously and 600 μg via nasal instillation for 3 doses given 36, 24 and 12 hr preceding the procedure) (Wang et al., 1998; Wang et al., 1999). The vector solution was left in place for an additional 45 min. and then the cannulae were removed, the incisions closed, and animals were allowed to recover. Three days later, animals were sacrificed, and the tissues studied for β-galactosidase expression.
# human nasal epithelium = assay: Nasal transepithelial voltage (Vt) in human volunteers; assay type: in vivo
# Protocol: Human studies. The Vt across the nasal epithelium was measured in 6 volunteers using previously described methods (Zabner et al., 1996). The protocol followed was identical to that described above for the rabbit studies. […] The catheter was then left in that position for the entire recording period. The solutions were administered through the second lumen in the following order: 1) Normal saline for 5 min; 2) Sterile water with 10 mM EGTA or 10 mM EDTA for 10 min; 3) Nommal saline with 10 mM EGTA or 10 mM EDTA for 5 min; and 4) Normal saline with 10 mM, EGTA or 10 mM EDTA plus […] amiloride for 5 min. Measurements of Vt were read by two investigators who were blinded and wvere checked by a third investigator if there was a discrepancy of more than 2 mV. Disruption of epithelial junctions was assessed by detecting a fall in nasal Vt after perfusion with the chelator, and by the loss of amiloride-sensitive Vt after perfusion with the. chelator solution.
# [4] = system: differentiated human airway epithelia; assay: Confocal (latex beads) and transmission electron microscopy of epithelial junctions after EGTA; assay type: cell-based; conditions: 1 hr
# Protocol: Ten micromoles of CMFDA (5-chloromethylfluorescein diacetate; Molecular Probes, Eugene, Oreg.) were added to the basal medium overnight to label cells (Knecht and Shelden, 1995; Stewart and Deacon, 1995). 100 nm latex beads (1×10^9 particles, Sigma, St. Louis, Mo.) were mixed with 12 mM hypotonic EGTA solution at a 1:1 ratio. The suspension was applied to the apical surface of KGF-stimulated epithelia for 1 hr. The epithelia were then washed with PBS 4-5 times for 20 min and then fixed in 4% paraformaldehyde/PBS for 20 min. The cell filter membranes were removed, mounted on slides, and examined under a confocal microscope (MRC 1024, Bio-Rad).
# Transmission electron microscopy was used to study cell morphology following treatment with a 6 mM EGTA in hypotonic buffer for 1 hr. Differentiated human airway epithelia were fixed in 2.5% glutaraldehyde (0.1 M sodium cacodylate buffer, pH 7.4) overnight at 4° C., and then post-fixed with 1% osmium tetroxide for 1 hr. Following serial alcohol dehydration, samples were embedded in Eponate 12 (Ted Pella, Inc., Redding, Calif.). Sectioning and post-staining were performed using routine methods (see “Electron Microscopy: Principles and Techniques for Biologists,” Jones and Bartlett Publishers, Sudbury, Mass., 1998). Samples were examined under a Hitachi H-7000 transmission electron microscope. […]
# lung epithelial layer = assay: Fluorescent bead penetration of lung epithelium after EGTA instillation; assay type: in vivo, rat; conditions: 3 or 12 mM EGTA, 100 μl into left lobe, one hour
# Protocol: as §1
# [5] = vector to apical surface with EGTA in vector buffer, 200 cells counted
compound,measurement,setting,value
O=C(O)CN(CCOCCOCCN(CC(=O)O)CC(=O)O)CC(=O)O [EGTA],effect on proliferation,"[1]; application of H2O or EGTA to epithelia, control studies",had no effect on proliferation
same,β-gal positive cells,"[1]; pretreated with combination of water and EGTA 20 min, then vector, mean±SE, n=9",20.3±2.5%
same,β-gal positive cells,"[1]; sequential water then EGTA in water 10 min each, then vector",8±1.3%
same,share of β-gal positive cells that are basal cells,[1]; [5],36%
same,share of β-gal positive cells that are ciliated cells,[1]; [5],28%
same,share of β-gal positive cells that are intermediate cells,[1]; [5],36%
same,β-gal positive cells,"[1]; water and EGTA 20 min, then vector containing EGTA, 3 days after delivery, mean±SE, n=9",34.3±5.4%
same,lung morphology,lung; 120 mM EGTA,thickening of the interstitial space was noted
same,lung morphology,lung; 12 or 60 mM EGTA/water,morphology similar to the control
same,time required to decrease R1 to ~20% of the controls,[2],Sixty
same,gene transfer to tracheal epithelium after pretreatment with 12 mM EGTA in water,[3],transduced cells throughout the tracheal epithelium
same,adverse effects of nasal perfusion,"human nasal epithelium; 10 mM EGTA, volunteers",did not experience any adverse effects
same,nasal Vt,"human nasal epithelium; H2O/chelator then chelator in saline, 10 mM",there was a significant decrease in the Vt
same,amiloride-sensitive nasal Vt after EGTA treatment,human nasal epithelium; n=6,EGTA treatment abolished the amiloride-sensitive Vt; also recorded: essentially no amiloride-sensitive Vt remained
same,width of intercellular gap (TEM),[4]; 6 mM EGTA in hypotonic buffer,~500 nm
same,intercellular spaces and deposition of 100 nm beads,"[4]; hypotonic 6 mM EGTA, apical",caused a widening of the intercellular spaces and facilitated deposition of beads in the paracellular space
same,penetration of 100 nM fluorescent beads into epithelial layer,lung epithelial layer,beads were seen throughout the cell layer and close to the basement membrane
